Reference: patent US5807671A (priority 1995, dated 1998)
Entries after “also recorded” stand apart in the source; their conditions may differ.

How the values were obtained:
[1] = system: "atypical" serum BuChE; type: biochemical, human
[2] = system: normal and "atypical" BuChE; type: biochemical, human
[3] = target: AChE E5 (Homo sapiens, UniProt P22303); type: biochemical
[4] = target: BuChE "atypical" (Homo sapiens, UniProt P06276, D98G)
[5] = target: AChE E6 (Homo sapiens, UniProt P22303); type: biochemical
[6] = target: BuChE normal (Homo sapiens, UniProt P06276); type: biochemical
[7] = system: AChE; type: biochemical, human
[8] = system: BuChE D^70 G + Y^114 H; type: biochemical, human
[9] = target: diisopropylphosphoryl-AChE (E5) (Homo sapiens, UniProt P22303)
[10] = target: diisopropylphosphoryl-Chimera; type: biochemical, human
[11] = target: diisopropylphosphoryl-BuChE (Homo sapiens, UniProt P06276); assay: biochemical
[12] = system: BuChE L^286 Q; type: biochemical, human
[13] = system: BuChE F^329 Q; type: biochemical, human
[14] = system: BuChE D^70 G; type: biochemical, human
[15] = system: BuChE D^70 G + S^425 P; type: biochemical, human
[16] = target: purified diethylphosphoryl-BuChE; details: cited from earlier work
[17] = system: BuChE L^286 R; type: biochemical, human
[18] = target: diisopropylphosphoryl-AChE (E6) (Homo sapiens, UniProt P22303)
[19] = system: BuChE S^425 P; type: biochemical, human
[20] = system: BuChE F^329 R; type: biochemical, human
[21] = target: BuChE L^286 K (Homo sapiens, UniProt P06276, L314K); assay: biochemical; type: biochemical
[22] = system: BuChE F^329 C; type: biochemical, human
[23] = human, in vivo, iv; cited from earlier work
[24] = system: BuChE L^286 D; type: biochemical, human
[25] = system: BuChE D^70 G + Y^114 H + S^425 P; type: biochemical, human
[26] = system: BuChE F^329 D; type: biochemical, human
[27] = system: normal serum BuChE; type: biochemical, human; details: 30 min, 10 µM
[28] = system: BuChE from heterozygous serum; type: biochemical, human; details: 30 min, 10 µM
[29] = system: serum BuChE; details: in vivo; cited from earlier work
[30] = system: ChEs (all of the examined enzymes); type: biochemical, human
[31] = system: REM sleep; details: in vivo; cited from earlier work
[32] = system: Parkinson's disease; details: human, in vivo; cited from earlier work
[33] = system: BuChE of heterozygotes / 1:1 mixture of normal and "atypical" BuChE
[34] = target: serum BuChE "atypical" (Homo sapiens, UniProt P06276, D98G)
[35] = system: Alzheimer's disease; details: in vivo; cited from earlier work
[36] = human, in vivo; cited from earlier work
[37] = system: "atypical" BuChE; details: cited from earlier work
[38] = system: "atypical" BuChE; details: cited from earlier work; remark: listed apart in the source
[39] = system: "atypical" BuChE; details: cited from earlier work; remark: listed apart in the source
[40] = system: Alzheimer's disease; details: in vivo; cited from earlier work; remark: listed apart in the source
[41] = in vivo
[42] = in vivo; remark: listed apart in the source
[43] = system: "atypical" BuChE; type: biochemical, human
[44] = system: horse serum BuChE; details: cited from earlier work

BuChE "atypical", sequence (P06276 29-602 D98G limits assumed): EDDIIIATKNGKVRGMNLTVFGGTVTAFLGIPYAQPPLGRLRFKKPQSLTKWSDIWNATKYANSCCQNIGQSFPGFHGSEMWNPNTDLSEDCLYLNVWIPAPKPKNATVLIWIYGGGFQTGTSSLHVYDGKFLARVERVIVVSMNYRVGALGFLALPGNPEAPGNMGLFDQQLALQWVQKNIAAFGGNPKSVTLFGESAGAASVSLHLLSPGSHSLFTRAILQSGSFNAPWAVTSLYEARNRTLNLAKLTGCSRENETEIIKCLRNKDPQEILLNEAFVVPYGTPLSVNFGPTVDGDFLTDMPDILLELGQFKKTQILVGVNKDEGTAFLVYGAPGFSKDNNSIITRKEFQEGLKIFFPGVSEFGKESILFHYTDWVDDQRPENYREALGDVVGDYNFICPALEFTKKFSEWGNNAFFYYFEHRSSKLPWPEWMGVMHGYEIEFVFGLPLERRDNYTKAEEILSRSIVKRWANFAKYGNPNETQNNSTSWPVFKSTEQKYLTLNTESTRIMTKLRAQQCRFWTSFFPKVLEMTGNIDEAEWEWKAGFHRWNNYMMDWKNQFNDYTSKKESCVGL
AChE E6, sequence (P22303 32-614): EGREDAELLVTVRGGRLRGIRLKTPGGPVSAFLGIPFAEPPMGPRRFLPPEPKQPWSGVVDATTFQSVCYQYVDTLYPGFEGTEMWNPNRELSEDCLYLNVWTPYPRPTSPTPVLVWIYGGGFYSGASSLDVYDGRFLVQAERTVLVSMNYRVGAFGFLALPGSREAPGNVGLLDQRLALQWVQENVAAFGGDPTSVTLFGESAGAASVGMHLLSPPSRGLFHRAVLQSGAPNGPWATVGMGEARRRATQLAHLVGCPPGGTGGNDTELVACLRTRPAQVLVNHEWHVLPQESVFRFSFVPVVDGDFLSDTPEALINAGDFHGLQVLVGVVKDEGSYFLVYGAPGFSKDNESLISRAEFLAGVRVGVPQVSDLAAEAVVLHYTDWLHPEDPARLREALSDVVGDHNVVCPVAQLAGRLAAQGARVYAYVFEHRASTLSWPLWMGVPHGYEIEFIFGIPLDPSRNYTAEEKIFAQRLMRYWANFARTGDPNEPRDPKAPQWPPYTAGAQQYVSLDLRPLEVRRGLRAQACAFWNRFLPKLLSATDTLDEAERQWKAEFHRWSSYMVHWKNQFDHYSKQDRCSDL
AChE E5, sequence (P22303-4 with tags, fused parts or gaps limits assumed): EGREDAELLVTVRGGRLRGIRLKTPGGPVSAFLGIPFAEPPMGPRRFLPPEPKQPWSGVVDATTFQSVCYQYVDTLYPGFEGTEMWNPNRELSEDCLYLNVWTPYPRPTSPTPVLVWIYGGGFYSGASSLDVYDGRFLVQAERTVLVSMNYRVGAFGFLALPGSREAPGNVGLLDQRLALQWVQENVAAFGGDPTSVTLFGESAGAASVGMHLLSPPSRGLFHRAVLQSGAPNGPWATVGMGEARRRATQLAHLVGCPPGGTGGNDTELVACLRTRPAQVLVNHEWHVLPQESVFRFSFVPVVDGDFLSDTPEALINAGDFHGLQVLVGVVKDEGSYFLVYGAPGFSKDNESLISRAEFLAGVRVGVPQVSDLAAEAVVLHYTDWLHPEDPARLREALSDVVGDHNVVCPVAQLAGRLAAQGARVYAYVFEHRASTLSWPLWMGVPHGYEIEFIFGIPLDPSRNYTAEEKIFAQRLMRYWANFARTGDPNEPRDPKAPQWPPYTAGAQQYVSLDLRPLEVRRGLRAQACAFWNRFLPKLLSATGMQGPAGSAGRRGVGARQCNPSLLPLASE
BuChE normal, sequence (P06276 29-602): as the sequence (P06276 29-602 D98G limits assumed) above, with G70D counted along it
diisopropylphosphoryl-BuChE, sequence (P06276 29-602): as the sequence (P06276 29-602 D98G limits assumed) above, with G70D counted along it
BuChE L^286 K, sequence (P06276 29-602 L314K limits assumed): as the sequence (P06276 29-602 D98G limits assumed) above, with G70D, L286K counted along it
diisopropylphosphoryl-AChE (E6), sequence (P22303 32-614): as the sequence (P22303 32-614) above
diisopropylphosphoryl-AChE (E5), sequence (P22303-4 with tags, fused parts or gaps limits assumed): as the sequence (P22303-4 with tags, fused parts or gaps limits assumed) above
serum BuChE "atypical", sequence (P06276 29-602 D98G limits assumed): as the sequence (P06276 29-602 D98G limits assumed) above

For `CCCCCCCNC(=O)Oc1ccc2c(c1)C1(C)CCN(C)C1N2C` (single isomer, unassigned) [N-heptyl physostigmine], the “reaction of "atypical" BuChE with carbamates, compared with its normal counterpart” value (shortened to “reaction … compared with its normal counterpart”) [1] was “much slower”, the original activity regained [2] was 10% and the “second order rate constants, ki, for inactivation” value (shortened to “second order rate constants, ki”) [3] was 1.4 × 10^6. The “inactivation rates of "atypical" BuChE” value [4] was “considerably lower rates”, the “second order rate constants, ki” value [4] was 7.7 × 10^5 ± 4.4 × 10^5 and the “second order rate constants, ki” value [5] was 1.6 × 10^6. The “inactivation rates of common BuChE compared with AChE” value [6] was “higher than or equal to”, the “second order rate constants, ki” value [6] was 1.1 × 10^7 ± 0.3 × 10^7 and the reactivation [7] was 5%.
For `C[n+]1ccccc1C=NO` [PAM, Pyridine-2-aldoxime methiodide], the “k'r × 10^3” value [8] was 12 ± 5, the “Kr × 10^3” value [9] was 10 ± 5 and the “k'r × 10^3” value [9] was 8 ± 3. The Kd [10] was 340 ± 130 µM, the “Kr × 10^3” value [10] was 48 ± 20 and the “k'r × 10^3” value [10] was 40 ± 18. For the same molecule, the “reactivation rate constant lower than that of native BuChE” value [10] was 5 fold, the Kd [11] was 300 µM and the “Kr × 10^3” value [11] was 220 ± 60. For the same molecule, the “k'r × 10^3” value [11] was 150 ± 30, the “pseudo-first order rate constant for reactivation of DFP-inhibited BuChE, higher than AChE” value [11] was 25 fold and the “k'r × 10^3” value [12] was 120 ± 20. The “k'r × 10^3” value [13] was 44 ± 15, the “k'r × 10^3” value [14] was 32 ± 4 and the “reactivation rate lower than wild-type BuChE” value [14] was 5 fold. The “k'r × 10^3” value [15] was 11, the Kd [16] was 200 µM and the “k'r × 10^3” value [17] was 6 ± 3. For the same molecule, the “Kr × 10^3” value [18] was 7 ± 3, the “k'r × 10^3” value [18] was 6 ± 2 and the “k'r × 10^3” value [19] was 134 ± 8. The “k'r × 10^3” value [20] was 43, the Kd [21] was > 5000 µM and the “Kr × 10^3” value [21] was 35 ± 27. For the same molecule, the “k'r × 10^3” value [21] was 4 ± 1, the “reduction in the pseudo-first order rate constant for reactivation” value [21] was 40 fold and the “k'r × 10^3” value [22] was 14 ± 2. For the same molecule, the Cmax [23] was ≤ 40 µM, the “k'r × 10^3” value [24] was 120 ± 30 and the “k'r × 10^3” value [25] was 4 ± 1. For the same molecule, the “k'r × 10^3” value [26] was 8 ± 1.
In the case of `CCN(C)C(=O)Oc1cccc([C@H](C)N(C)C)c1` [SDZ ENA-713], the “loss of BuChE activity” value [27] is reported as 95%, the “reaction … compared with its normal counterpart” value [1] is reported as “much slower” and the “decrease in BuChE activity” value ([1]; serum, 30 min, 10 µM) is reported as “about 40%”. The “second order rate constants, ki” value [3] was 3.3 × 10^3, the “loss of BuChE activity” value [28] was 80% and the “inactivation rates of "atypical" BuChE” value [4] was “considerably lower rates”. For the same molecule, the “second order rate constants, ki” value [4] was 4.7 × 10^2 ± 4.6 × 10^2, the “serum BuChE activity” value [29] was “transient drop in serum BuChE activity” and the “second order rate constants, ki” value [5] was 4.3 × 10^3. The reactivation levels [30] was ≤ 8%, the “inactivation rates of common BuChE compared with AChE” value [6] was “higher than or equal to” and the “second order rate constants, ki” value [6] was 1.4 × 10^4 ± 0.3 × 10^4. The “frequency of rapid eye movements during REM sleep” value [31] was “increase the frequency of rapid eye movements during REM sleep”.
In the case of `Nc1c2c(nc3ccccc13)CCCC2` [Tacrine, 1,2,3,4-tetrahydro-9 aminoacridine], the “symptoms of PD patient” value [32] is listed as “worsening of the symptoms”, the “inhibition curves of mixtures of normal and "atypical" enzyme” value [33] is listed as “expected intermediary inhibition curves” and the “inhibition in the presence of 1 μm tacrine” value [33] is listed as “intermediate levels of activity”. For the same molecule, the “capacity of "atypical" BuChE to interact with tacrine, compared with the normal enzyme” value [34] was “drastic reduction”, the “improvement in Alzheimer's disease patients” value [35] was “statistically significant, dose-related improvements” and the “cases in which aminotransferase reached 20 times the upper limit of normal” value [36] was 2%. The “patients with severe cholinergic side-effects” value [36] was “over 10%”, the “serum alanine aminotransferase level in 2% of the cases” value [36] was 20 times the upper limit of normal and the “serum alanine aminotransferase level, usually” value [36] was “less than three times the upper limit of normal value”. For the same molecule, the “serum BuChE activity” value [29] was “transient drop in serum BuChE activity”.
For `CC(=O)Oc1ccccc1C(=O)O` [aspirin], the “Km with "atypical" variant, higher than with usual enzyme” value (shortened to “Km with "atypical" variant, higher than”) [37] is listed as ~4 fold.
In the case of `CN(C)C(=O)Oc1cc(OC(=O)N(C)C)cc(C(O)CNC(C)(C)C)c1` (stereo not shown) [bambuterol], the “IC50, higher for "atypical" than wild-type BuChE” value [38] is given as “at least 10 fold” and the “Ki, higher for "atypical" than wild-type BuChE” value [38] is given as “at least 10 fold”.
In the case of `CCCCOc1cc(C(=O)NCCN(CC)CC)c2ccccc2n1` [dibucaine], the “hydrolysis by "atypical" BuChE” value [39] is given as “inability of the affected enzyme to hydrolyze”.
In the case of `CC(=O)Oc1ccc2c3c1O[C@H]1[C@@H](OC(C)=O)C=C[C@H]4[C@@H](C2)N(C)CC[C@@]341` [heroin], the “Km with "atypical" variant, higher than” value [37] is listed as 4 fold.
In the case of `CC(C)NP(=O)(NC(C)C)OP(=O)(NC(C)C)NC(C)C` [iso-OMPA], the “sensitivity of the atypical variant to inhibitors” value [38] is given as “much less sensitive”.
In the case of `CNC(=O)Oc1ccc2c(c1)[C@]1(C)CCN(C)[C@@H]1N2C` [physostigmine], the “reaction … compared with its normal counterpart” value [1] is given as “much slower”, the “IC50, higher for "atypical" than wild-type BuChE” value [38] is given as “at least 10 fold” and the “Ki, higher for "atypical" than wild-type BuChE” value [38] is given as “at least 10 fold”. The “sensitivity of the atypical variant to inhibitors” value [38] was “much less sensitive”, the “effect on cognitive functions” value [40] was “small, short-term positive effect on cognitive functions” and the “inactivation rates of "atypical" BuChE” value [4] was “considerably lower rates”. For the same molecule, the “second order rate constants, ki” value [4] was 2.6 × 10^4 ± 0.9 × 10^4, the “inactivation rates of common BuChE compared with AChE” value [6] was “higher than or equal to” and the “second order rate constants, ki” value [6] was 3.8 × 10^5 ± 1.6 × 10^5. For the same molecule, the spontaneous reactivation [7] was “up to 90%”.
For `CCN(CC)CCOC(=O)c1ccc(N)cc1` [procaine], the “Km with "atypical" variant, higher than” value [37] is listed as 15 fold.
In the case of `CN(C)C(=O)Oc1ccc[n+](C)c1` [pyridostigmine], the “reaction … compared with its normal counterpart” value [1] is reported as “much slower”, the reactivation [2] is reported as 10% and the “second order rate constants, ki” value [3] is reported as 2.5 × 10^4. The “adverse symptoms under pyridostigmine” value [41] was “insomnia, weight loss and general fatigue, which worsened consistently, and a deep depression”, the “second order rate constants, ki” value [5] was 2.2 × 10^4 and the “second order rate constants, ki” value [6] was 1.9 × 10^3 ± 0.2 × 10^3. The reactivation [7] was 50%.
In the case of `C[N+](C)(C)CCOC(=O)CCC(=O)OCC[N+](C)(C)C` [succinylcholine], the post-anesthesia apnea [42] is given as “two hour post-anesthesia apnea”, the “hydrolysis by serum BuChE of H. K.” value [43] is given as “totally incapable of hydrolyzing; also recorded: cannot hydrolyze” and the “hydrolysis by "atypical" BuChE” value [39] is given as “unable to hydrolyze; also recorded: inability of the affected enzyme to hydrolyze”. For the same molecule, the “hydrolysis by horse serum BuChE” value [44] was “will not hydrolyze”.
